This is an account of results in US12226424B2, “Target protein degradation compounds, their anti-tumor use, their intermediates and use of intermediates” (ShanghaiTech University, priority 2018, dated 2025).

Structures are written as SMILES. Read-outs that look alike come from different tables or passages of the source.

The target of one test is ALK protein (Homo sapiens, UniProt Q9UM73). The experiment in a line: Western-blot half degradation concentration (DC50) of ALK protein in H3122 cells. The test is classed as cell-based. Particulars: 24 h drug treatment, read-out: DC50 (nM)/ H3122 cell line. The procedure: (§1) ALK-positive SR cells (human large cell immunoblastic lymphoma) were purchased from the American Type Culture Collection (ATCC); H3122 cells (human non-small cell lung cancer) were from the Shanghai University of Science and Technology Lin Haifan's research group.
ALK protein, sequence (Q9UM73 with tags, fused parts or gaps): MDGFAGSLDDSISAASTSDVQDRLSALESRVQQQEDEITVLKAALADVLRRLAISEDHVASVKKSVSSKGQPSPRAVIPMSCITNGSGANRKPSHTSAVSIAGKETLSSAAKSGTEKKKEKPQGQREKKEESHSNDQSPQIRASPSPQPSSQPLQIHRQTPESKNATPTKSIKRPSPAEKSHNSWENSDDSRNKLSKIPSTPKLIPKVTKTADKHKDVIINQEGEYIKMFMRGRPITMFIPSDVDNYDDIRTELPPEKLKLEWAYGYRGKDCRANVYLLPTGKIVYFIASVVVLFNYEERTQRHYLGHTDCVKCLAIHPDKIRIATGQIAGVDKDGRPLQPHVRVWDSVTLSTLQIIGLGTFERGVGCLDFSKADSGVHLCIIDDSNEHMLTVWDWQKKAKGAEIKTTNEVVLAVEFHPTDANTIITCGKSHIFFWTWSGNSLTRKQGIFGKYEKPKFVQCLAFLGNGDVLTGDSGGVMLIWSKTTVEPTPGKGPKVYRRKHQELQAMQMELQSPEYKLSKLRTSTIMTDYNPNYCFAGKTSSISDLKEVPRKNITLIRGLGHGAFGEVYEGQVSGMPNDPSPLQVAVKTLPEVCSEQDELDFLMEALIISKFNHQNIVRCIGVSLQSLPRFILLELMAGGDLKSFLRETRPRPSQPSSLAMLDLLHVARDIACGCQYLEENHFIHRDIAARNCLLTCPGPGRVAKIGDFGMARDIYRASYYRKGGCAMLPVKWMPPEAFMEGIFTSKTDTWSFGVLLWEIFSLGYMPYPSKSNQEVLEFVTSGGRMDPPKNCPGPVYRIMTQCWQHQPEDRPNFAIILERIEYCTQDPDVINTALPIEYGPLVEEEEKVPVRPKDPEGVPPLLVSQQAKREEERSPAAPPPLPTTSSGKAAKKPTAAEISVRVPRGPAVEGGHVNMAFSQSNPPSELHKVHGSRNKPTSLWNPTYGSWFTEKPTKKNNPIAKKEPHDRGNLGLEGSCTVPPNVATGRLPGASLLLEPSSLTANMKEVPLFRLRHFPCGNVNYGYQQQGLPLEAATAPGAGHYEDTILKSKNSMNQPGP
(§2) The cells used in this present disclosure were cultured in a 37° C. incubator containing 5% CO2.
DC50 (drug concentration corresponding to protein degradation to 50%) calculation: according to the gray value of the corresponding Western blotting band after drug treatment, fitting the relationship curve between drug concentration and gray value to calculate the drug concentration range corresponding to half of the gray value.

For the next test, the system named is SR cells. The experiment in a line: Half inhibitory concentration (IC50) on ALK-positive SR cell proliferation (CCK-8). The test is classed as cell-based. As to conditions: Homo sapiens; SR cells, 72 h drug treatment, CCK-8; read-out: IC50 (nM)/ SR cell line. The method, then: as §1, §2
SR cells were seeded in 100 μL RPMI1640 complete medium at a density of 10,000 cells/well. 100 μL of the inoculated cells were treated with 0.5 μL diluted PROTAD compound of the present disclosure to be tested at 10 successively decreasing concentrations (starting at the highest concentration of 10 μM; 5-fold serial dilutions) After the cells were treated with the drug for 72 h, cell viability was determined according to the CCK-8 reagent operating instructions. The negative control was DMSO, and the positive control was a commercial inhibitor. After CCK-8 treatment for 2 h, the value of O.D.450 was measured using a microplate reader.

Another test has as its system MV-4-11 cells. The test can be described thus: Half inhibitory concentration (IC50) on BET-expressing tumor cells, CCK-8, MV-4-11.
Where [1] appears, read: Homo sapiens, MV4-11, read-out: IC50 (nM)/MV-4-11 cell line, MV-4-11 cells, 48/72 h, CCK-8.
Where [2] appears, read: read-out: IC50 (nM)/MV-4-11 cell line, MV-4-11 cells, 48/72 h, CCK-8.

In the case of `CCc1cc2c(cc1N1CCN(C(=O)CSc3cccc4c3C(=O)N(C3CCC(=O)NC3=O)C4=O)CC1)C(C)(C)c1[nH]c3cc(C#N)ccc3c1C2=O` (centres unmarked) [SIAIS164068, 8-(4-(2-((2-(2,6-dioxopiperidin-3-yl)-1,3-dioxoisoindolin-4-yl)thio)acetyl)piperazin-1-yl)-9-ethyl-6,6-dimethyl-11-oxo-6,11-dihydro-5H-benzo[b]carbazole-3-carbonitrile], on ALK protein, the DC50 came to 104 nM. For the molecule `CCc1cc2c(cc1N1CCN(C(=O)CCSc3cccc4c3C(=O)N(C3CCC(=O)NC3=O)C4=O)CC1)C(C)(C)c1[nH]c3cc(C#N)ccc3c1C2=O` (centres unmarked) [SIAIS164069, 8-(4-(3-((2-(2,6-dioxopiperidin-3-yl)-1,3-dioxoisoindolin-4-yl)thio)propanoyl)piperazin-1-yl)-9-ethyl-6,6-dimethyl-11-oxo-6,11-dihydro-5H-benzo[b]carbazole-3-carbonitrile], the DC50 on ALK protein fell in the range of 100 to 500 nM.

For the molecule `CCc1cc2c(cc1N1CCN(C(=O)CCCSc3cccc4c3C(=O)N(C3CCC(=O)NC3=O)C4=O)CC1)C(C)(C)c1[nH]c3cc(C#N)ccc3c1C2=O` (centres unmarked) [SIAIS164070, 8-(4-(4-((2-(2,6-dioxopiperidin-3-yl)-1,3-dioxoisoindolin-4-yl)thio)butanoyl)piperazin-1-yl)-9-ethyl-6,6-dimethyl-11-oxo-6,11-dihydro-5H-benzo[b]carbazole-3-carbonitrile], on ALK protein, the DC50 fell in the range of 100 to 500 nM. Same read-out and setting: as for `CCc1cc2c(cc1N1CCN(C(=O)CCCCCSc3cccc4c3C(=O)N(C3CCC(=O)NC3=O)C4=O)CC1)C(C)(C)c1[nH]c3cc(C#N)ccc3c1C2=O` (centres unmarked) [SIAIS164071, 8-(4-(6-((2-(2,6-dioxopiperidin-3-yl)-1,3-dioxoisoindolin-4-yl)thio)hexanoyl)piperazin-1-yl)-9-ethyl-6,6-dimethyl-11-oxo-6,11-dihydro-5H-benzo[b]carbazole-3-carbonitrile], the figure is 204 nM; as for `CCc1cc2c(cc1N1CCN(C(=O)CCCCSc3cccc4c3C(=O)N(C3CCC(=O)NC3=O)C4=O)CC1)C(C)(C)c1[nH]c3cc(C#N)ccc3c1C2=O` (centres unmarked) [SIAIS164072, 8-(4-(5-((2-(2,6-dioxopiperidin-3-yl)-1,3-dioxoisoindolin-4-yl)thio)pentanoyl)piperazin-1-yl)-9-ethyl-6,6-dimethyl-11-oxo-6,11-dihydro-5H-benzo[b]carbazole-3-carbonitrile], 63 nM; as for `CCc1cc2c(cc1N1CCN(C(=O)CCCCCCSc3cccc4c3C(=O)N(C3CCC(=O)NC3=O)C4=O)CC1)C(C)(C)c1[nH]c3cc(C#N)ccc3c1C2=O` (centres unmarked) [SIAIS164073, 8-(4-(7-((2-(2,6-dioxopiperidin-3-yl)-1,3-dioxoisoindolin-4-yl)thio)heptanoyl)piperazin-1-yl)-9-ethyl-6,6-dimethyl-11-oxo-6,11-dihydro-5H-benzo[b]carbazole-3-carbonitrile], 100 to 500 nM. Take `COc1cc(N2CCC(NC(=O)CSc3cccc4c3C(=O)N(C3CCC(=O)NC3=O)C4=O)CC2)ccc1Nc1ncc(Cl)c(Nc2ccccc2P(C)(C)=O)n1` (centres unmarked) [SIAIS164137, N-(1-(4-((5-chloro-4-((2-(dimethylphosphoryl)phenyl)amino)pyrimidin-2-yl)amino)-3-methoxyphenyl)piperidin-4-yl)-2-((2-(2,6-dioxopiperidin-3-yl)-1,3-dioxoisoindolin-4-yl)thio)acetamide]: in the test on SR cells, the IC50 turned out to be 16.8 ± 5.7 nM. For the same molecule, on ALK protein, the DC50 was found to be 500 nM. Take `COc1cc(N2CCC(NC(=O)CCSc3cccc4c3C(=O)N(C3CCC(=O)NC3=O)C4=O)CC2)ccc1Nc1ncc(Cl)c(Nc2ccccc2P(C)(C)=O)n1` (centres unmarked) [SIAIS164138, N-(1-(4-((5-chloro-4-((2-(dimethylphosphoryl)phenyl)amino)pyrimidin-2-yl)amino)-3-methoxyphenyl)piperidin-4-yl)-3-((2-(2,6-dioxopiperidin-3-yl)-1,3-dioxoisoindolin-4-yl)thio)propanamide]: in the test with SR cells, the IC50 is 24.1 ± 17.5 nM. Also, at ALK protein, the DC50 is 100 nM. On to `COc1cc(N2CCC(NC(=O)CCCSc3cccc4c3C(=O)N(C3CCC(=O)NC3=O)C4=O)CC2)ccc1Nc1ncc(Cl)c(Nc2ccccc2P(C)(C)=O)n1` (centres unmarked) [SIAIS164139, N-(1-(4-((5-chloro-4-((2-(dimethylphosphoryl)phenyl)amino)pyrimidin-2-yl)amino)-3-methoxyphenyl)piperidin-4-yl)-4-((2-(2,6-dioxopiperidin-3-yl)-1,3-dioxoisoindolin-4-yl)thio)butanamide], for which, in the test on SR cells, the IC50 amounted to 11.6 ± 6 nM. Moreover, on ALK protein, the DC50 is 500 nM. On to `COc1cc(N2CCC(NC(=O)CCCCSc3cccc4c3C(=O)N(C3CCC(=O)NC3=O)C4=O)CC2)ccc1Nc1ncc(Cl)c(Nc2ccccc2P(C)(C)=O)n1` (centres unmarked) [SIAIS164140, N-(1-(4-((5-chloro-4-((2-(dimethylphosphoryl)phenyl)amino)pyrimidin-2-yl)amino)-3-methoxyphenyl)piperidin-4-yl)-5-((2-(2,6-dioxopiperidin-3-yl)-1,3-dioxoisoindolin-4-yl)thio)pentanamide], for which the IC50 with SR cells was found to be 8.7 ± 4.9 nM. The DC50 on ALK protein is 500 nM. For the molecule `COc1cc(N2CCC(NC(=O)CCCCCCSc3cccc4c3C(=O)N(C3CCC(=O)NC3=O)C4=O)CC2)ccc1Nc1ncc(Cl)c(Nc2ccccc2P(C)(C)=O)n1` (centres unmarked) [SIAIS164142, N-(1-(4-((5-chloro-4-((2-(dimethylphosphoryl)phenyl)amino)pyrimidin-2-yl)amino)-3-methoxyphenyl)piperidin-4-yl)-7-((2-(2,6-dioxopiperidin-3-yl)-1,3-dioxoisoindolin-4-yl)thio)heptanamide], the IC50 in the test with SR cells turned out to be 6.4 ± 4 nM. Also, the DC50 at ALK protein came to 50 nM.

Take `Cc1sc2c(c1C)C(c1ccc(Cl)cc1)=N[C@@H](CC(=O)NCCOCCSc1cccc3c1CN(C1CCC(=O)NC1=O)C3=O)c1nnc(C)n1-2` (stereo partly drawn) [SIAIS213100, 2-((S)-4-(4-chlorophenyl)-2,3,9-trimethyl-6H-thieno[3,2-f][1,2,4]triazolo[4,3-a][1,4]diazepin-6-yl)-N-(2-(2-((2-(2,6-dioxopiperidin-3-yl)-1-oxoisoindolin-4-yl)thio)ethoxy)ethyl)acetamide]: the IC50 in the test on MV-4-11 cells (setting [1]) was 0.5 ± 0.1 nM. Regarding `Cc1sc2c(c1C)C(c1ccc(Cl)cc1)=N[C@@H](CC(=O)N1CCNCC1)c1nnc(C)n1-2` [SIAIS213113], the IC50 in the test with MV-4-11 cells (setting [1]) amounted to 21.6 nM; in the test with MV-4-11 cells (setting [2]) it was 12.9 nM. `Cc1sc2c(c1C)C(c1ccc(Cl)cc1)=N[C@@H](CC(=O)N1CCN(CCCSc3cccc4c3CN(C3CCC(=O)NC3=O)C4=O)CC1)c1nnc(C)n1-2` (stereo partly drawn) [SIAIS213117, 3-(4-((3-(4-(2-((S)-4-(4-chlorophenyl)-2,3,9-trimethyl-6H-thieno[3,2-f][1,2,4]triazolo[4,3-a][1,4]diazepin-6-yl)acetyl)piperazin-1-yl)propyl)thio)-1-oxoisoindolin-2-yl)piperidine-2,6-dione]: the IC50 came to 0.063 nM in the test on MV-4-11 cells (setting [1]) and 0.041 nM with MV-4-11 cells (setting [2]).

For `Cc1sc2c(c1C)C(c1ccc(Cl)cc1)=N[C@@H](CC(=O)NCCN1CCNCC1)c1nnc(C)n1-2` [SIAIS213130], the IC50 worked out at 29.8 nM with MV-4-11 cells (setting [1]) and 17.7 nM in the test with MV-4-11 cells (setting [2]). Take `Cc1sc2c(c1C)C(c1ccc(Cl)cc1)=N[C@@H](CC(=O)NCCN1CCN(CCCCCSc3cccc4c3CN(C3CCC(=O)NC3=O)C4=O)CC1)c1nnc(C)n1-2` (stereo partly drawn) [SIAIS213133, 2-((S)-4-(4-chlorophenyl)-2,3,9-trimethyl-6H-thieno[3,2-f][1,2,4]triazolo[4,3-a][1,4]diazepin-6-yl)-N-(2-(4-(5-((2-(2,6-dioxopiperidin-3-yl)-1-oxoisoindolin-4-yl)thio)pentyl)piperazin-1-yl)ethyl)acetamide]: the IC50 in the test with MV-4-11 cells (setting [1]) turned out to be 0.036 ± 0.045 nM.

As to `Cc1sc2c(c1C)C(c1ccc(Cl)cc1)=N[C@@H](CC(=O)NCCN1CCN(CCCSc3cccc4c3CN(C3CCC(=O)NC3=O)C4=O)CC1)c1nnc(C)n1-2` (stereo partly drawn) [SIAIS213136, 2-((S)-4-(4-chlorophenyl)-2,3,9-trimethyl-6H-thieno[3,2-f][1,2,4]triazolo[4,3-a][1,4]diazepin-6-yl)-N-(2-(4-(3-((2-(2,6-dioxopiperidin-3-yl)-1-oxoisoindolin-4-yl)thio)propyl)piperazin-1-yl)ethyl)acetamide], the IC50 in the test with MV-4-11 cells (setting [1]) is 0.068 nM; in the test with MV-4-11 cells (setting [2]), 0.04 nM.

As for `Cc1sc2c(c1C)C(c1ccc(Cl)cc1)=N[C@@H](CC(=O)N1CCN(CCCCSc3cccc4c3CN(C3CCC(=O)NC3=O)C4=O)CC1)c1nnc(C)n1-2` (stereo partly drawn) [SIAIS213138, 3-(4-((4-(4-(2-((S)-4-(4-chlorophenyl)-2,3,9-trimethyl-6H-thieno[3,2-f][1,2,4]triazolo[4,3-a][1,4]diazepin-6-yl)acetyl)piperazin-1-yl)butyl)thio)-1-oxoisoindolin-2-yl)piperidine-2,6-dione], the IC50 is 0.084 nM with MV-4-11 cells (setting [1]) and 0.051 nM with MV-4-11 cells (setting [2]). For the molecule `Cc1sc2c(c1C)C(c1ccc(Cl)cc1)=N[C@@H](CC(=O)NCCN1CCN(CCCCSc3cccc4c3CN(C3CCC(=O)NC3=O)C4=O)CC1)c1nnc(C)n1-2` (stereo partly drawn) [SIAIS213139, 2-((S)-4-(4-chlorophenyl)-2,3,9-trimethyl-6H-thieno[3,2-f][1,2,4]triazolo[4,3-a][1,4]diazepin-6-yl)-N-(2-(4-(4-((2-(2,6-dioxopiperidin-3-yl)-1-oxoisoindolin-4-yl)thio)butyl)piperazin-1-yl)ethyl)acetamide], in the test on MV-4-11 cells (setting [1]), the IC50 amounted to 0.027 ± 0.006 nM.
